Experimental findings from ChEMBL document CHEMBL1127237, “Analogs of UK 14,304 as 2-adrenoceptor agonists. Twist and agent polarity as design elements” (Bioorg Med Chem Lett, 1994) are described below.

Structures are written as SMILES.

Data set [1] can be described thus: Distribution coefficient between octanol and pH 7.2 phosphate buffer. The data set is classed as physicochemical. The following applies: for logD: octanol/phosphate buffer.
Data set [2] has as its target T1, Adrenergic receptor alpha-1 (Homo sapiens, UniProt P35348+P25100+P35368).
T1 sequence (P35348 whole entry): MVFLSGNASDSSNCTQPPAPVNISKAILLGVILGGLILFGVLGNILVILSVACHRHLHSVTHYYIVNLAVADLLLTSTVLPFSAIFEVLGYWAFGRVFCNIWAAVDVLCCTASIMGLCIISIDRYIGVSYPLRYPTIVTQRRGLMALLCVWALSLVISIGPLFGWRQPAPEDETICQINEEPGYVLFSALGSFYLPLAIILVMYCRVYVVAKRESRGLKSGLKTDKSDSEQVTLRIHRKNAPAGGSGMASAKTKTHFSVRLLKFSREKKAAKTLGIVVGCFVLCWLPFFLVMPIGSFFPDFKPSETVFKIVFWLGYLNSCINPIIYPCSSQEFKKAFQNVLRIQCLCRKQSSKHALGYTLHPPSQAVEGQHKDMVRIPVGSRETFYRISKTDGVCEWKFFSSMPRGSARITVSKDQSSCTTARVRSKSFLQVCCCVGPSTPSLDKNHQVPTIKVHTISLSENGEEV
T1 sequence (P25100 whole entry): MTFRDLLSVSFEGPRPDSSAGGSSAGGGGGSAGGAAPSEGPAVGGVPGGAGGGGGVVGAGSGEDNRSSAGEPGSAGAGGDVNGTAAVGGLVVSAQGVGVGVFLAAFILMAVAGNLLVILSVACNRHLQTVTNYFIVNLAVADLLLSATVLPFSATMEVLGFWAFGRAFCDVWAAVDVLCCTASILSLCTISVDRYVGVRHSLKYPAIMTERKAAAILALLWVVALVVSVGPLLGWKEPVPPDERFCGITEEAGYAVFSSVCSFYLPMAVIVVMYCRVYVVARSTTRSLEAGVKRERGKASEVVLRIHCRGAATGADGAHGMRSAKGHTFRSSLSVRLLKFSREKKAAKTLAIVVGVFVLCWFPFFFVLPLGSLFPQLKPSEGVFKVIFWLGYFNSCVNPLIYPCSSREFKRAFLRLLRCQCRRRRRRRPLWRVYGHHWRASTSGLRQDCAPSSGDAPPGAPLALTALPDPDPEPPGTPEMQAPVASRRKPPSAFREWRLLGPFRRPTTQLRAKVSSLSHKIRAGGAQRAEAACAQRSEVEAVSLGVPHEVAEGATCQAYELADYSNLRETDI
T1 sequence (P35368 whole entry): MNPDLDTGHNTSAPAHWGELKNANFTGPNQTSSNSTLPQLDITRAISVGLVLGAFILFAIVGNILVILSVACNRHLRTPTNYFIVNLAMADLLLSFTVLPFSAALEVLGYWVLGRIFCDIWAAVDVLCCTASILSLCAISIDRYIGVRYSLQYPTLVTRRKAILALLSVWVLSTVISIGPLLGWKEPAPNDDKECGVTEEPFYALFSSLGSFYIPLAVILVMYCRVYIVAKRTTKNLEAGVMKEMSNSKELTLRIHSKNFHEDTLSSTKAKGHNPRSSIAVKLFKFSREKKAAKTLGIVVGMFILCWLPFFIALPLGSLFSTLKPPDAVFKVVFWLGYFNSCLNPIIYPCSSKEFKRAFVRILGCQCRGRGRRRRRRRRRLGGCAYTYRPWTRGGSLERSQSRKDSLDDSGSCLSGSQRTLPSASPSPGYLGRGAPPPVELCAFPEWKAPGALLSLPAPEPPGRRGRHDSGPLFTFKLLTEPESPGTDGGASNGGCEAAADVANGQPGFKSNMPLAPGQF
Nature of the data set: Binding affinity towards Alpha-1 adrenergic receptor in human brain.

Data set [3] addresses T2, Adrenergic receptor alpha-2 (Homo sapiens, UniProt P08913+P18825+P18089).
T2 sequence (P08913 whole entry): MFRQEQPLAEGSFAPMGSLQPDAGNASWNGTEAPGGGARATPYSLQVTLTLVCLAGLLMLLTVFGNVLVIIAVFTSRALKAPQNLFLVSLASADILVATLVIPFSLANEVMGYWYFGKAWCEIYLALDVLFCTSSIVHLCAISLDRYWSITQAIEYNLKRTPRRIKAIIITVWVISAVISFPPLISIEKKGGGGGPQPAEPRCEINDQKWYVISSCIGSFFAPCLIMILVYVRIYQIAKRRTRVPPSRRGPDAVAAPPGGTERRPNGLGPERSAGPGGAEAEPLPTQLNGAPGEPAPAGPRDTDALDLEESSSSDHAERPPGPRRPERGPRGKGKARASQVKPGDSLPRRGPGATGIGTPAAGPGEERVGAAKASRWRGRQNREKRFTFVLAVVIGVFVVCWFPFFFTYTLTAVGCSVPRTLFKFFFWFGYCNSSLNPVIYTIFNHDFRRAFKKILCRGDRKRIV
T2 sequence (P18825 whole entry): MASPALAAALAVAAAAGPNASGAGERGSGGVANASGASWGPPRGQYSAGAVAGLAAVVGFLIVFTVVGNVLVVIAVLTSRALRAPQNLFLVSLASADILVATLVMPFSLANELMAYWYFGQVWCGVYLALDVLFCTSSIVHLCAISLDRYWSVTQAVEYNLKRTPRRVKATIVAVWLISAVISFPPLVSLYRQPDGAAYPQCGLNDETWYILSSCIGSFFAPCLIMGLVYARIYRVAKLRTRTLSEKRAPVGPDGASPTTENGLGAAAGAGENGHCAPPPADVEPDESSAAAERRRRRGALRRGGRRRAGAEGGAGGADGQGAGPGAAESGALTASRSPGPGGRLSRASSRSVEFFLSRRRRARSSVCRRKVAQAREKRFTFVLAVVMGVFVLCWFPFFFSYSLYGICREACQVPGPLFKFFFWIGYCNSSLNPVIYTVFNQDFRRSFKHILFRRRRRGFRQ
T2 sequence (P18089 whole entry): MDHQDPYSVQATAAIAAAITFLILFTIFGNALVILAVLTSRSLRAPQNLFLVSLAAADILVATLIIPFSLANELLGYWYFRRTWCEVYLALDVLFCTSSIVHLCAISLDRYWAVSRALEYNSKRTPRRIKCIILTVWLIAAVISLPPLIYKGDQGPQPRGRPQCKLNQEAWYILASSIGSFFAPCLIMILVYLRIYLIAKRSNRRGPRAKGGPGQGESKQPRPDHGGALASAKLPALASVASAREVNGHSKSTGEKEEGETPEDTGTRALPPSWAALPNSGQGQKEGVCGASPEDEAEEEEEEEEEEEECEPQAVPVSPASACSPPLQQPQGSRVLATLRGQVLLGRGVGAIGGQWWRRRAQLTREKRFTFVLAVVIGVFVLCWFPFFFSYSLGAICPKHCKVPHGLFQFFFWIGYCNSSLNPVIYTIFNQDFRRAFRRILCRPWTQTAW
Description: Binding affinity towards Alpha-2 adrenergic receptor in HT-29 cells. It counts as cell-based.

Broadly, the logD is the decadic logarithm of the distribution of all forms, ionised or not, between an organic phase and buffer at a given pH. A high value points to higher lipophilicity. Usually Ki stands for a measure of affinity in units of concentration, obtained from inhibition or displacement. In data set [1], `Cc1c(NC2=NCCN2)ccc2nccnc12` came in with a logD of 0.16. For the same molecule, the Ki in data set [2] stood at 1400 nM; in data set [3], 1.3 nM.
On to `Cc1c(NC2=NCCN2)ccc2c1NCCN2`, for which the logD in data set [1] was -2.08. The Ki was 8700 nM in data set [2] and 6.8 nM in data set [3].
For `Brc1c(NC2=NCCN2)ccc2c1NCCN2`, the log distribution coefficient (logD) in data set [1] was -1.74. Moreover, the Ki came to 1100 nM in data set [2] and 6 nM in data set [3].
Take `c1cnc2cc(NC3=NCCN3)ccc2n1`: the Ki amounted to 11000 nM in data set [2] and 64 nM in data set [3].
In the case of `Brc1c(NC2=NCCN2)ccc2nccnc12` [BRIMONIDINE], the “Log DC” value in data set [1] (octanol/water) came to 1.5.
For the molecule `c1cc2c(cc1NC1=NCCN1)NCCN2`, the Ki amounted to 5100 nM in data set [2] and 46 nM in data set [3].
